Measured values published in patent US4505929A, “Sulfur-substituted diphenyl ethers having antiviral activity” (The Dow Chemical Company, priority 1982, dated 1985).
In brackets after ≈: the same amount, converted by molar mass. Read-outs that look alike come from different tables or passages of the source.

Tests used:
Format in all cases: cell-based
[1] = Cytotoxicity to HeLa cells in tissue culture testing; conditions: human
Procedure: (§1) Monolayered HeLa cells in 16 millimeter (mm) tissue culture dishes were treated with 1 ml of culture medium (Eagles medium supplemented with fetal calf serum) containing subject compound at an appropriate concentration or containing no compound at all. Culture media such as those described herein are more fully described in standard texts, as for example, Kuchler's Biochemical Methods in Cell Culture and Virology, Dowden, Hutchinson and Ross, Inc., Stroudsberg, PA (1977). Following treatment, cells were challenged with 0.05 ml of rhinovirus type 1A (RV-1A), rhinovirus type 2 (RV-2) or Coxsackie A21 virus (Cox A21) in culture medium. Some of the compounds were also tested against rhinovirus type 5 (RV-5), rhinovirus type 8 (RV-8) or rhinovirus type 64 (RV-64). Cell controls received no viruses.
^x Cytotoxicity figures represent the concentration of the compound,
micrograms/milliliter (μg/ml) found to be toxic to the cell.
means "approximately "; "<<" "considerably less than " and "G.I." means

[2] = test system: rhinovirus type 64 (RV-64); assay: Tissue culture antiviral test (HeLa cells), RV-64; conditions: Enterovirus, 48 and 72 hours post-treatment, read-out: Lowest concentration necessary to cause a 50 percent reduction in cytopathic effect, RV-64
Procedure: as §1
(§2) ^xx Lowest concentration of the compound (μg/ml) necessary to caus
(§3) a 50 percent reduction in cytopathic effect.

[3] = test system: Coxsackie A21 virus (Cox A21); assay: Tissue culture antiviral test (HeLa cells), Cox A21; conditions: 48 and 72 hours post-treatment, read-out: Lowest concentration necessary to cause a 50 percent reduction in cytopathic effect, Cox A21
Procedure: as §1, §2, §3

rhinovirus type 2 (RV-2) = assay: Tissue culture antiviral test (HeLa cells), RV-2; conditions: Enterovirus, 48 and 72 hours post-treatment, read-out: Lowest concentration necessary to cause a 50 percent reduction in cytopathic effect, RV-2
Procedure: as §1, §2, §3

rhinovirus type 8 (RV-8) = assay: Tissue culture antiviral test (HeLa cells), RV-8; conditions: Enterovirus, 48 and 72 hours post-treatment, read-out: Lowest concentration necessary to cause a 50 percent reduction in cytopathic effect, RV-8
Procedure: as §1, §2, §3

rhinovirus type 5 (RV-5) = assay: Tissue culture antiviral test (HeLa cells), RV-5; conditions: Enterovirus, 48 and 72 hours post-treatment, read-out: Lowest concentration necessary to cause a 50 percent reduction in cytopathic effect, RV-5
Procedure: as §1, §2, §3

[4] = test system: rhinovirus type 1A (RV-1A); assay: Tissue culture antiviral test (HeLa cells), RV-1A; conditions: Enterovirus, 48 and 72 hours post-treatment, read-out: Lowest concentration necessary to cause a 50 percent reduction in cytopathic effect, RV-1A
Procedure: as §1, §2, §3

[5] = concentration found to be toxic to the cell, observed at 48 and 72 hours, read-out: Cytotoxicity
[6] = G.I. = growth inhibition: at the concentration shown the compound inhibited growth of the tissue culture, read-out: Cytotoxicity (G.I.)

Row | SMILES | EC50 [2] [µg/mL] | EC50 [3] [µg/mL] | EC50 (rhinovirus type 2 (RV-2)) [µg/mL] | EC50 (rhinovirus type 8 (RV-8)) [µg/mL] | EC50 (rhinovirus type 5 (RV-5)) [µg/mL] | EC50 [4] [µg/mL] | MCC [1, 5] [µg/mL] | MCC [1, 6] [µg/mL]
1 | CS(=O)(=O)c1ccc(Oc2ccc(C(=O)c3ccccc3)cc2)cc1 [Example 4, (4-(4-(Methylsulfonyl)phenoxy)phenyl)phenylmethanone] | 100 (≈ 284 µM) | < 6.25 | 50 (≈ 142 µM) |  |  |  | > 100 | 
2 | CC(=O)c1ccc(Oc2ccc(S(C)(=O)=O)cc2)cc1 [Example 3, 1-(4-(4-(Methylsulfonyl)phenoxy)phenyl)ethanone] | < 6.25 | < 6.25 | 12.5 (≈ 43.1 µM) | 25 (≈ 86.1 µM) | 25 (≈ 86.1 µM) | 25 (≈ 86.1 µM) | 50 | 
3 | CS(=O)(=O)c1ccc(Oc2ccc(C#N)cc2)cc1 [Example 8, 4-(4-(Methylsulfonyl)phenoxy)benzonitrile] | 12.5 (≈ 45.7 µM) | < 6.25 | 12.5 (≈ 45.7 µM) | 25 (≈ 91.5 µM) | 12.5 (≈ 45.7 µM) | 12.5 (≈ 45.7 µM) | 50 | 
4 | C[S+]([O-])c1ccc(Oc2ccc(Cl)c(Cl)c2)cc1 (stereo not drawn) [Example 6, 1,2-Dichloro-4-(4-(methylsulfinyl)phenoxy)benzene] | < 0.31 |  | < 0.31 |  |  | < 0.31 | 12.5 | 
5 | CS(=O)(=O)c1ccc(Oc2ccc(Cl)c(Cl)c2)c(N)c1 [Example 16, 2-(3,4-Dichlorophenoxy)-5-(methylsulfonyl)benzenamine] |  | 6.25 (≈ 18.8 µM) | 6.25 (≈ 18.8 µM) |  |  | < 6.25 | ≤ 6.25 | 
6 | CS(=O)(=O)c1ccc(Oc2ccc(Br)cc2)cc1 [Example 9, 1-Bromo-4-(4-(methylsulfonyl)phenoxy)benzene] |  | < 3.12 | < 3.12 | 12.5 (≈ 38.2 µM) | 12.5 (≈ 38.2 µM) | < 3.12 | 12.5 | 
7 | O=S(=O)(c1ccccc1)c1ccc(Oc2ccc(Cl)c(Cl)c2)cc1 [Example 10, 4-(4-(Phenylsulfonyl)phenoxy)-1,2-dichlorobenzene] |  | 6.25 (≈ 16.5 µM) | 6.25 (≈ 16.5 µM) |  |  |  | 50 | 
8 | CN(C)S(=O)(=O)c1ccc(Oc2ccc(S(C)(=O)=O)cc2)cc1 [Example 12, N,N-Dimethyl-4-(4-(methylsulfonyl)phenoxy)benzenesulfonamide] |  | 50 (≈ 141 µM) |  |  |  |  |  | 100
9 | CS(=O)(=O)c1ccc(Oc2ccc(Cl)cc2)cc1 [Example 2, 4-(4-(Methylsulfonyl)phenoxy)-1-chlorobenzene] |  | 0.625 (≈ 2.21 µM) | 1.25 (≈ 4.42 µM) |  |  | 1.25 (≈ 4.42 µM) |  | 10
10 | CN(C)S(=O)(=O)c1ccc(Oc2ccc(S(=O)(=O)c3ccccc3)cc2)cc1 [Example 11, N,N-Dimethyl-4-(4-(phenylsulfonyl)phenoxy)benzenesulfonamide] |  | 0.625 (≈ 1.5 µM) | 0.625 (≈ 1.5 µM) |  |  | 0.625 (≈ 1.5 µM) | 1.25 | 
11 | CSc1ccc(Oc2ccc(C#N)cc2)cc1 [Example 5, 4-(4-(Methylthio)phenoxy)benzonitrile] |  | < 3.12 | < 3.12 |  |  | < 3.12 | 6.25 | 
12 | C[S+]([O-])c1ccc(Oc2ccc(C#N)cc2)cc1 (stereo not drawn) [Example 7, 4-(4-(Methylsulfinyl)phenoxy)benzonitrile] |  | 3.12 (≈ 12.1 µM) | 3.12 (≈ 12.1 µM) |  |  | 3.12 (≈ 12.1 µM) | 25 | 
13 | CCN(CC)S(=O)(=O)c1ccc(Oc2ccc(S(C)(=O)=O)cc2)cc1 [Example 13, N,N-Diethyl-4-(4-(methylsulfonyl)phenoxy)benzenesulfonamide] |  | 25 (≈ 65.2 µM) |  |  |  | 50 (≈ 130 µM) |  | 100
14 | CS(=O)(=O)c1ccc(Oc2ccc(Cl)c(Cl)c2)c(Cl)c1 [Example 14, 4-(2-Chloro-4-(methylsulfonyl)phenoxy)-1,2-dichlorobenzene] |  | 12.5 (≈ 35.5 µM) | ≤ 6.25 |  |  | 12.5 (≈ 35.5 µM) | 50 | 
15 | CS(=O)(=O)c1ccc(Oc2ccc(Cl)c(Cl)c2)c([N+](=O)[O-])c1 [Example 15, 4-(4-(Methylsulfonyl)-2-nitrophenoxy)-1,2-dichlorobenzene] |  |  | 6.25 (≈ 17.3 µM) |  |  |  | > 100 | 
16 | CS(=O)(=O)c1ccc(Oc2ccc([N+](=O)[O-])cc2[N+](=O)[O-])cc1 [Example 31, 1-(4-(Methylsulfonyl)phenoxy)-2,4-dinitrobenzene] |  | ≤ 6.25 | ~12.5 (≈ 36.9 µM) |  |  | ~12.5 (≈ 36.9 µM) | 25 | 
17 | C[S+]([O-])c1ccc(Oc2ccc([N+](=O)[O-])cc2[N+](=O)[O-])cc1 (stereo not drawn) [Example 30, 1-(4-(Methylsulfinyl)phenoxy)-2,4-dinitrobenzene] |  | 6.25 (≈ 19.4 µM) | ~6.25 (≈ 19.4 µM) |  |  |  | 12.5 | 
18 | CSc1ccc(Oc2ccc([N+](=O)[O-])cc2[N+](=O)[O-])cc1 [Example 28, 1-(4-(Methylthio)phenoxy)-2,4-dinitrobenzene] |  | ≤ 6.25 | < 6.25 |  |  | ≤ 6.25 |  | 50 to 100

Continued, in another order:

Row | EC50 [2] [µg/mL] | EC50 [3] [µg/mL] | EC50 (rhinovirus type 2 (RV-2)) [µg/mL] | EC50 (rhinovirus type 8 (RV-8)) [µg/mL] | EC50 (rhinovirus type 5 (RV-5)) [µg/mL] | EC50 [4] [µg/mL] | SMILES | MCC [1, 5] [µg/mL] | MCC [1, 6] [µg/mL]
19 | 12.5 (≈ 44.9 µM) | 25 (≈ 89.8 µM) | 12.5 (≈ 44.9 µM) |  |  | 6.25 (≈ 22.5 µM) | COc1ccc(Oc2ccc(S(C)(=O)=O)cc2)cc1 [Example 18, 4-(4-(Methylsulfonyl)phenoxy)-1-methoxybenzene] | > 50 | 
20 | < 3.12 |  | 6.25 (≈ 18.9 µM) |  | 12.5 (≈ 37.7 µM) | < 3.12 | Cc1cc(Oc2ccc(Cl)c(Cl)c2)ccc1S(C)(=O)=O [Example 19, 4-(3-Methyl-4-(methylsulfonyl)phenoxy)-1,2-dichlorobenzene] | > 50 | 
21 | 2.5 (≈ 7.39 µM) | 2.5 (≈ 7.39 µM) | 1.25 (≈ 3.69 µM) | 5 (≈ 14.8 µM) | 5 (≈ 14.8 µM) | 2.5 (≈ 7.39 µM) | CS(=O)(=O)c1ccc(Oc2ccc(Cc3ccccc3)cc2)cc1 [Example 20, 1-(4-(Methylsulfonyl)phenoxy)-4-(phenylmethyl)benzene] | 5 | 
22 |  |  | ~25 (≈ 94.6 µM) |  |  | ~25 (≈ 94.6 µM) | CS(=O)(=O)c1ccc(Oc2ccc(O)cc2)cc1 [Example 21, 4-(4-(Methylsulfonyl)phenoxy)phenol] | 25 | 
23 |  | < 6.25 | ≤ 6.25 |  |  | 12.5 (≈ 42.6 µM) | CS(=O)(=O)c1ccc(Oc2ccc([N+](=O)[O-])cc2)cc1 [Example 32, 1-(Methylsulfonyl)-4-(4-nitrophenoxy)benzene] | 50 | 
24 |  | ≤ 6.25 | ≤ 6.25 |  |  | 6.25 (≈ 23.9 µM) | CSc1ccc(Oc2ccc([N+](=O)[O-])cc2)cc1 [Example 27, 1-(Methylthio)-4-(4-nitrophenoxy)benzene] | 12.5 | 
25 |  | 12.5 (≈ 36.5 µM) | 25 (≈ 73.1 µM) |  |  | 12.5 (≈ 36.5 µM) | CS(=O)(=O)c1ccc(Oc2ccc(Cl)c(Cl)c2)c(C#N)c1 [Example 17, 2-(3,4-Dichlorophenoxy)-5-(methylsulfonyl)benzonitrile] | > 100 | 
26 | 10 (≈ 33 µM) | 2.5 (≈ 8.24 µM) | 5 (≈ 16.5 µM) | 5 (≈ 16.5 µM) | 5 (≈ 16.5 µM) | 2.5 (≈ 8.24 µM) | CS(=O)(=O)c1ccc(Oc2ccc(OCC#N)cc2)cc1 [Example 23, (4-(4-(Methylsulfonyl)phenoxy)phenoxy)acetonitrile] | 10 | 
27 |  | < 3.12 | 6.25 (≈ 16.8 µM) |  |  | 12.5 (≈ 33.7 µM) | O=S(=O)(c1ccc(Oc2ccc(Cl)c(Cl)c2)cc1)C(F)(F)F [Example 25, 4-(4-((Trifluoromethyl)sulfonyl)phenoxy)-1,2-dichlorobenzene] | > 50 | 
28 |  | < 6.25 | ≤ 6.25 |  |  | ≤ 6.25 | C[S+]([O-])c1ccc(Oc2ccc([N+](=O)[O-])cc2)cc1 (stereo not drawn) [Example 29, 1-(Methylsulfinyl)-4-(4-nitrophenoxy)benzene] | 25 | 
29 |  |  |  |  | 2.5 (≈ 6.88 µM) | 1.25 (≈ 3.44 µM) | CCN(CC)CCOc1ccc(Oc2ccc(S(C)(=O)=O)cc2)cc1 [Example 24] | ≤ 20 | 
30 |  | 0.625 (≈ 1.57 µM) | 1.25 (≈ 3.15 µM) |  | ~1.25 (≈ 3.15 µM) | 2.5 (≈ 6.29 µM) | CS(=O)(=O)c1ccc(Oc2ccc(OC(F)(F)C(Cl)Cl)cc2)cc1 [Example 22, 1-(2,2-Dichloro-1,1-difluoroethoxy)-4-(4-(methylsulfonyl)phenoxy)benzene] | 2.5 | 
31 | 0.625 (≈ 1.43 µM) | ≤ 0.3 | 0.3 (≈ 0.686 µM) | ≤ 0.312 | 0.625 (≈ 1.43 µM) | 0.312 (≈ 0.714 µM) | CCN(CC)S(=O)(=O)c1ccc(Oc2ccc(S(=O)(=O)C(F)(F)F)cc2)cc1 [Example 26, N,N-Diethyl-4-(4-((trifluoromethyl)sulfonyl)phenoxy)benzenesulfonamide] | 0.625 | 
